Reference: patent publication US20240345376A1, “SYSTEM AND METHOD FOR NANOSCALE AXIAL LOCALIZATION AND SUPER […] IMAGING WITH HEIGHT-[…]” (The George Washington University, priority 2021, published 2024)

Tested on: SKBR3 cells
Test: Plasma membrane tension and bending modulus mapping from MAxSIM height fluctuation data in live cells
Type: cell-based
Conditions: 5 μM for 30 minutes, FIG. 12C
Text: Analysis of single-pixel-level plasma membrane biomechanics in live cells using the time-dependent membrane heights acquired by MAxSIM imaging: Utilizing MAxSIM technology, we mapped the membrane tension and bending modulus of plasma membranes in MCF7 cells (low HER2 expression) and SKBR3 (HER2 overexpression enabling constitutive HER2 activity). […] This approach, based on the Helfrich-Canham model, has been commonly employed in the literature, allowing the membrane tension (o) and bending modulus (K) to be linked to height fluctuations by the following equation.
where ? |h(q)|^2 ? represents the power spectral density of the membrane height fluctuations, q is the wave vector, kbT is the thermal energy, σ is the membrane tension, and κ is the bending modulus. From fitting the raw experimental data to this function, membrane tension (σ) and bending modulus (κ) are extracted (FIGS. 12A, 12B, 12C). To identify mechanical compartments, we will utilize and compare various cluster analysis methods we have tested, including K-means analysis, which groups similar data points into K clusters based on their proximity to cluster centers, and DBscan, a density-based clustering algorithm that groups data points based on their proximity.
1. Super-resolution imaging and single-molecule-tracking tools and mechanical property measurements: a. […]

## C/C1=C/C(=O)O[C@@H]2C[C@@H](CC[C@H](C)/C=C\C=C\CC1)O[C@@](O)([C@@H]1CSC(=O)N1)C2 [latrunculin A]
  mechanical compartmentalization (membrane tension and bending modulus) on the basal plasma membrane: significant reduction
